Patent US11767278B2, “Plant extract compositions for forming protective coatings” (Apeel Technology, Inc., priority 2015, dated 2023)

Test system: avocados
Assay: Mass loss rates of avocados coated with compounds extracted by thermal depolymerization of cutin
Set-up: species or system avocado
Details: unpeeled avocados dipped in 10 mg/mL solution in ethanol, humidity about 40%-55%
Experimental: Protective coatings were formed over avocados by extracting compounds by method described herein (thermal depolymerization of cutin) and depositing the compounds over the outer surface of the (unpeeled) avocados. The mass loss rates of the avocados were then measured and compared to those of uncoated avocados. All coatings were formed by dipping the avocados in a solution comprising the associated compounds dissolved in substantially pure ethanol at a concentration of 10 mg/mL, placing the avocados on drying racks, and allowing the avocados to dry under ambient room conditions at a temperature in the range of about 23° C.-27° C. and humidity in the range of about 40%-55%. The avocados were held at these same temperature and humidity conditions for the entire duration of the time they were tested.
Mass loss rates are shown in FIG. 16 for untreated (e.g., uncoated) avocados in bar 1602, for avocados coated with ethyl 10,16-dihydroxyhexadecanoate (referred to as “EtDHPA”) in bar 1604, and for avocados coated with a mixture of EtDHPA and 1,3-dihydroxypropan-2-yl hexadecanoate (referred to as “PA-2G”) in bar 1606, where for bar 1606 the EtDHPA and PA-2G were mixed at a mass ratio of 30:70. […]

CCOC(=O)CCCCCCCCC(O)CCCCCCO (centres unmarked) [EtDHPA, ethyl 10,16-dihydroxyhexadecanoate]
average rate of mass decrease of coated avocados (mass loss rate) (dried, held at about 23-27 °C, group of 30 avocados, FIG. 16): about 1.06 % per day
reduction of average mass loss rate as compared to the uncoated avocados (about 23-27 °C, uncoated avocados about 1.21% per day): more than 12%
